Converted amounts (≈) assume the structure as drawn.
Legend:
Assay in all cases: Antibacterial activity in vitro, MIC by broth microdilution
H. influenzae Hain_49247 = assay type: cell-based, Haemophilus influenzae; settings: Table 3, Strain ID L: H. influenzae Hain_49247; unit assumed
Method in brief: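 Visible-growth inhibition defined the MIC, obtained by NCCLS broth microdilution at 35° C. over 18-24 hours with a final inoculum of 3×10^5–7×10^5 CFU/mL.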

S. pyogenes Stpy_8668 = assay type: cell-based; settings: Table 3, Strain ID D: S. pyogenes Stpy_8668
Method in brief: (§1)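 Broth microdilution per NCCLS in cation-adjusted Mueller-Hinton broth (S. pneumoniae: plus 2-5% lysed horse blood, 5-10% CO2), inoculum 3×10^5–7×10^5 CFU/mL, 2-fold serial drug dilutions, 35° C. for 18-24 hours. MIC taken as lowest concentration preventing visible growth.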

[1] = test system: S. epidermidis Step_14990; assay type: cell-based; settings: Table 3, Strain ID A: S. epidermidis Step_14990; unit assumed
Method in brief: as §1

E. coli Esco_25922 = assay type: cell-based; settings: Table 3, Strain ID M: E. coli Esco_25922; unit assumed
Method in brief: as §1

E. faecalis Enfa_29212 = assay type: cell-based; settings: Table 3, Strain ID C: E. faecalis Enfa_29212
Method in brief: as §1

[2] = test system: S. epidermidis Step_f50654 Pen S; assay type: cell-based; settings: Table 3, Strain ID B: S. epidermidis Step_f50654 Pen S; unit assumed
Method in brief: as §1

[3] = test system: S. pneumoniae Stpn_Erm S 4297; assay type: cell-based, Streptococcus pneumoniae; settings: Table 3, Strain ID I: S. pneumoniae Stpn_Erm S 4297
Method in brief: as §1

S. pneumoniae Stpn_49619 = assay type: cell-based, Streptococcus pneumoniae; settings: Table 3, Strain ID E: S. pneumoniae Stpn_49619
Method in brief: as §1

[4] = test system: S. pneumoniae Stpn_Mef 5654; assay type: cell-based, Streptococcus pneumoniae; settings: Table 3, Strain ID J: S. pneumoniae Stpn_Mef 5654; unit assumed
Method in brief: as §1

[5] = test system: S. pneumoniae Stpn_Mef S 3427; assay type: cell-based, Streptococcus pneumoniae; settings: Table 3, Strain ID K: S. pneumoniae Stpn_Mef S 3427
Method in brief: as §1

[6] = test system: S. pneumoniae Stpn_297-749 Pen R; assay type: cell-based, Streptococcus pneumoniae; settings: Table 3, Strain ID F: S. pneumoniae Stpn_297-749 Pen R
Method in brief: as §1

[7] = test system: S. pneumoniae Stpn_280-962 Pen S; assay type: cell-based, Streptococcus pneumoniae; settings: Table 3, Strain ID G: S. pneumoniae Stpn_280-962 Pen S
Method in brief: as §1

[8] = test system: S. pneumoniae Stpn_Erm 6849; assay type: cell-based, Streptococcus pneumoniae; settings: Table 3, Strain ID H: S. pneumoniae Stpn_Erm 6849; unit assumed
Method in brief: as §1

Structure (SMILES)	MIC (H. influenzae Hain_49247) [mg/L]	MIC (S. pyogenes Stpy_8668)	MIC [1] [mg/L]	MIC (E. coli Esco_25922) [mg/L]	MIC (E. faecalis Enfa_29212; unit assumed) [mg/L]	MIC [2] [mg/L]	MIC ([3]; unit assumed) [mg/L]	MIC (S. pneumoniae Stpn_49619)	MIC [4] [mg/L]	MIC ([5]; unit assumed) [mg/L]	MIC [6]	MIC [7]	MIC [8] [mg/L]	MIC (S. pyogenes Stpy_8668; unit assumed) [mg/L]	MIC (S. pneumoniae Stpn_49619; unit assumed) [mg/L]	MIC (E. faecalis Enfa_29212)	MIC [3]	MIC [5]	MIC ([6]; unit assumed) [mg/L]	MIC ([7]; unit assumed) [mg/L]
CC[C@H]1OC(=O)[C@H](C)[C@@H](O[C@H]2C[C@@](C)(OC)[C@@H](O)[C@H](C)O2)[C@H](C)[C@@H](O[C@@H]2O[C@H](C)C[C@H](N(C)C)[C@H]2O)[C@](C)(OC)C[C@@H](C)C(=O)[C@H](C)[C@@H](O)[C@]1(C)O [Clar., clarithromycin, reference compound]	12.5 (≈ 16.7 µM)	≦0.05	0.2 (≈ 0.267 µM)	50 (≈ 66.8 µM)	0.78 (≈ 1.04 µM)	0.2 (≈ 0.267 µM)	> 50	≦0.05	6.25 (≈ 8.36 µM)	1.56 (≈ 2.09 µM)	≦0.05	≦0.05	> 50							
CC[C@H]1OC(=O)[C@H](C)C(=O)[C@H](C)[C@@H](O[C@@H]2O[C@H](C)C[C@H](N(C)C)[C@H]2O)[C@@](C)(OC)C[C@@H](C)C(=O)[C@H](C)[C@H]2NC(=O)O[C@@H]21 [Compound 4266]	25 (≈ 41.8 µM)		3.13 (≈ 5.23 µM)	> 50	1.56 (≈ 2.61 µM)	3.13 (≈ 5.23 µM)	> 50		0.2 (≈ 0.334 µM)	0.1 (≈ 0.167 µM)	≦0.05	≦0.05	> 50	0.1 (≈ 0.167 µM)	0.2 (≈ 0.334 µM)					
CC[C@H]1OC(=O)[C@H](C)C(=O)[C@H](C)[C@@H](O[C@@H]2O[C@H](C)C[C@H](N(C)C)[C@H]2O)[C@@](C)(OC)C[C@@H](C)C(=O)[C@H](C)[C@@H]2[C@@H]1OC(=O)N2CCCCn1cnc(-c2ccccc2)c1 [Compound 4710]	3.13 (≈ 3.93 µM)	≦0.5	0.1 (≈ 0.125 µM)	50 (≈ 62.7 µM)		0.2 (≈ 0.251 µM)		≦0.5	0.2 (≈ 0.251 µM)		≦0.5	≦0.5	0.2 (≈ 0.251 µM)			≦0.05	≦0.05	≦0.5		
CC[C@H]1OC(=O)[C@H](C)C(=O)[C@H](C)[C@@H](O[C@@H]2O[C@H](C)C[C@H](N(C)C)[C@H]2O)[C@@](C)(OC)C[C@@H](C)C(=O)[C@H](C)[C@@H]2[C@@H]1OC(=O)N2CCCCc1ccnc2ccccc12 [Compound 4711]	1.56 (≈ 1.99 µM)	≦0.5	0.1 (≈ 0.128 µM)	50 (≈ 63.9 µM)		0.1 (≈ 0.128 µM)	0.2 (≈ 0.256 µM)	≦0.5	0.1 (≈ 0.128 µM)		≦0.5	≦0.5	6.25 (≈ 7.99 µM)			≦0.05		≦0.5		
CC[C@H]1OC(=O)[C@H](C)C(=O)[C@H](C)[C@@H](O[C@@H]2O[C@H](C)C[C@H](N(C)C)[C@H]2O)[C@@](C)(OC)C[C@@H](C)C(=O)[C@H](C)[C@@H]2[C@@H]1OC(=O)N2CCCCn1cnc2ncccc21 [Compound 4713]	3.13 (≈ 4.05 µM)	≦0.5	0.4 (≈ 0.518 µM)	50 (≈ 64.8 µM)	0.1 (≈ 0.13 µM)	0.4 (≈ 0.518 µM)	0.1 (≈ 0.13 µM)	≦0.5	3.13 (≈ 4.05 µM)	0.4 (≈ 0.518 µM)	≦0.5	≦0.5	0.78 (≈ 1.01 µM)							
CC[C@H]1OC(=O)[C@H](C)C(=O)[C@H](C)[C@@H](O[C@@H]2O[C@H](C)C[C@H](N(C)C)[C@H]2O)[C@@](C)(OC)C[C@@H](C)C(=O)[C@H](C)[C@@H]2[C@@H]1OC(=O)N2CCCn1cnc(-c2ccccc2)c1 [Compound 4714]	> 50		6.25 (≈ 7.98 µM)	> 50	0.4 (≈ 0.511 µM)	6.25 (≈ 7.98 µM)	6.25 (≈ 7.98 µM)	≦0.5	0.4 (≈ 0.511 µM)	0.1 (≈ 0.128 µM)	≦0.5	≦0.5	> 50	0.1 (≈ 0.128 µM)						
CC[C@H]1OC(=O)[C@H](C)C(=O)[C@H](C)[C@@H](O[C@@H]2O[C@H](C)C[C@H](N(C)C)[C@H]2O)[C@@](C)(OC)C[C@@H](C)C(=O)[C@H](C)[C@@H]2[C@@H]1OC(=O)N2CCCn1cnc2cccnc21 [Compound 4716]	25 (≈ 33 µM)		6.25 (≈ 8.25 µM)	> 50	0.78 (≈ 1.03 µM)	12.5 (≈ 16.5 µM)	25 (≈ 33 µM)	≦0.5	0.78 (≈ 1.03 µM)	0.4 (≈ 0.528 µM)	≦0.5	≦0.5	> 50	0.1 (≈ 0.132 µM)						
CC[C@H]1OC(=O)[C@H](C)C(=O)[C@H](C)[C@@H](O[C@@H]2O[C@H](C)C[C@H](N(C)C)[C@H]2O)[C@@](C)(OC)C[C@@H](C)C(=O)[C@H](C)[C@@H]2[C@@H]1OC(=O)N2CCCCn1ccc2ccccc21 [Compound 4717]	6.25 (≈ 8.12 µM)	≦0.5	0.2 (≈ 0.26 µM)	> 50	0.1 (≈ 0.13 µM)	0.4 (≈ 0.519 µM)	0.4 (≈ 0.519 µM)	≦0.5	0.2 (≈ 0.26 µM)		≦0.5	≦0.5	6.25 (≈ 8.12 µM)					≦0.05		
CC[C@H]1OC(=O)[C@H](C)C(=O)[C@H](C)[C@@H](O[C@@H]2O[C@H](C)C[C@H](N(C)C)[C@H]2O)[C@@](C)(OC)C[C@@H](C)C(=O)[C@H](C)[C@@H]2[C@@H]1OC(=O)N2CCCCc1ccc2ccccc2n1 [Compound 5960]	3.13 (≈ 4 µM)	≦0.05	0.2 (≈ 0.256 µM)	25 (≈ 32 µM)		0.2 (≈ 0.256 µM)	0.1 (≈ 0.128 µM)	≦0.05	0.2 (≈ 0.256 µM)		≦0.05	≦0.05	25 (≈ 32 µM)			≦0.05		≦0.05		
CC[C@H]1OC(=O)[C@H](C)C(=O)[C@H](C)[C@@H](O[C@@H]2O[C@H](C)C[C@H](N(C)C)[C@H]2O)[C@@](C)(OC)C[C@@H](C)C(=O)[C@H](C)[C@@H]2[C@@H]1OC(=O)N2CCCCc1ccnc2ccccc12 [Compound 6220]	1.56 (≈ 1.99 µM)	≦0.05	0.1 (≈ 0.128 µM)	6.25 (≈ 7.99 µM)		0.1 (≈ 0.128 µM)	0.1 (≈ 0.128 µM)	≦0.05	0.4 (≈ 0.512 µM)		≦0.05	≦0.05	3.13 (≈ 4 µM)			≦0.05		≦0.5		
CC[C@H]1OC(=O)[C@H](C)C(=O)[C@H](C)[C@@H](O[C@@H]2O[C@H](C)C[C@H](N(C)C)[C@H]2O)[C@@](C)(OC)C[C@@H](C)C(=O)[C@H](C)[C@@H]2[C@@H]1OC(=O)N2CCCCn1cnc(-c2ccccc2)c1 [Compound 6221]	3.13 (≈ 3.93 µM)	≦0.05	0.1 (≈ 0.125 µM)	25 (≈ 31.4 µM)		0.1 (≈ 0.125 µM)		≦0.05	0.4 (≈ 0.502 µM)		≦0.05	≦0.05	0.1 (≈ 0.125 µM)			≦0.05	≦0.05	≦0.05		
CC[C@H]1OC(=O)[C@H](C)C(=O)[C@H](C)[C@@H](O[C@@H]2O[C@H](C)C[C@H](N(C)C)[C@H]2O)[C@@](C)(OC)C[C@@H](C)C2=NCCN3C(=O)O[C@H]1[C@H]3[C@H]2C [Compound 6222]	25 (≈ 40.1 µM)		1.56 (≈ 2.5 µM)	50 (≈ 80.2 µM)	0.4 (≈ 0.641 µM)	1.56 (≈ 2.5 µM)	> 50		0.78 (≈ 1.25 µM)	0.4 (≈ 0.641 µM)			> 50	0.2 (≈ 0.321 µM)	0.2 (≈ 0.321 µM)				0.4 (≈ 0.641 µM)	0.2 (≈ 0.321 µM)
CC[C@H]1OC(=O)[C@H](C)C(=O)[C@H](C)[C@@H](O[C@@H]2O[C@H](C)C[C@H](N(C)C)[C@H]2O)[C@@](C)(OC)C[C@@H](C)C2=N[C@@H](C)CN3C(=O)O[C@H]1[C@H]3[C@H]2C [Compound 6223]	> 50		1.56 (≈ 2.45 µM)	50 (≈ 78.4 µM)	0.78 (≈ 1.22 µM)	3.13 (≈ 4.91 µM)	> 50		0.78 (≈ 1.22 µM)	0.4 (≈ 0.627 µM)			> 50	0.2 (≈ 0.314 µM)	0.2 (≈ 0.314 µM)				0.2 (≈ 0.314 µM)	0.2 (≈ 0.314 µM)

Source: patent publication US6756359B2, “C12 modified erythromycin macrolides and ketolides having antibacterial activity” (Chiron Corporation, priority 2001, dated 2004)
